The text below walks through data of the METLIN SMRT retention time set (Domingo-Almenara et al. 2019).

A short description of this series: gradient 5% acetonitrile 3 min, to 50% in 2 min, to 85% in 15 min, held 3 min, 100 µL/min. Conditions: column: Zorbax Extend-C18 2.1 x 50 mm; eluents: water / acetonitrile, 0.1% formic acid. A digest of the protocol: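 Standards, all pure, were combined into mixtures of ~100 molecules and run at 100 μL/min on a Zorbax Extend-C18 column (2.1 × 50 mm, 1.8 μm) with water and acetonitrile, each containing 0.1% formic acid. A coupled quadrupole time-of-flight mass spectrometer operated in positive and negative ionization mode. Retention time values come from computationally picked adduct peaks, each inspected manually.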
On to `CCN1C(=O)COc2ccc(-c3noc(COc4ccc(OC)cc4)n3)cc21`, for which the RP-LC retention time is 1000 s. Then `COc1ccccc1N1CCN(c2cc(SCC(=O)NCc3ccco3)ncn2)CC1`, with 777 s; and `Cc1cnc(CCNC(=O)Nc2ccc3c(c2)OCCO3)n1C1CCC1`, with 517 s; and `CCOc1ccc(NC(=O)c2cccc3ccccc23)c([N+](=O)[O-])c1`, with 1050 s. Then `COc1cc(NC(=O)CSc2cc(N3CCN(c4ccccc4OC)CC3)ncn2)cc(OC)c1`, with 957 s; and `CCC(=O)NCc1nc2c(n1CC)CN(C(=O)c1ccc(C(F)(F)F)cc1)CC2`, with 614 s; and `COc1cc2ncc(-c3ccccc3)nc2cc1OC`, with 1020 s.

Turning to `CN1CCN(CCNC(=O)C2CCCN(c3nc4ccccc4n(Cc4ccccc4)c3=O)C2)CC1` (stereo not given), the RP-LC retention time amounted to 662 s. In the case of `Cc1cc(C)c(-c2csc(Nc3ccccn3)n2)cc1C` it was 1030 s; in that of `CCC(=O)N1CCc2c([nH]c3ccccc23)C12C(=O)N(C)c1ccc(Br)cc12` (stereo not given), 939 s. `Cc1ccc(CNC(=O)c2cc3sccc3n2Cc2ccc(Cl)cc2)cc1` showed an RP-LC retention time of 1200 s. Then `CS(=O)(=O)Nc1ccc(C2(C(=O)NCc3cccc(F)c3)CCCCC2)cc1`, with 887 s; and `COc1ncc(C(=O)Nc2ccc(F)c(F)c2)c(C)n1`, with 795 s. In the case of `COc1ccc(CNC(=O)Cn2cccc2-c2nnc(-c3ccccc3)o2)cc1` it was 862 s; in that of `CNC(=O)c1ccc2c(c1)CCCN2C(=O)c1ccc(F)cc1`, 698 s; in that of `CCOc1ccc(S(=O)(=O)N2CCC(c3nc(C(=O)N(C)C)c(C)o3)CC2)cc1`, 843 s.

As to `Cc1ccn2cc(-c3ccc(NC(=O)Nc4ccc(F)cc4)cc3)nc2n1`, the RP-LC retention time amounted to 654 s.

As for `Cc1[nH]c(C(=O)N2CCCC(C(=O)NCCCc3ccccc3)C2)c(C)c1C(=O)OC(C)C` (stereo not given), the RP-LC retention time is 892 s.

Compound `Cc1ccc(N2CCC(NC(=O)C(C)C)C2=O)cc1C` (stereo not given) gave an RP-LC retention time of 762 s.

`Cc1oc(C2CCN(C(=O)COc3ccccc3)CC2)nc1C(=O)N1CCCCC1` gave an RP-LC retention time of 796 s. Then `Cc1ccc(C)c(C(=O)N2CCc3c(c(-c4nc(C5CC5)no4)nn3C)C2)c1`, with 854 s. In the case of `CCN(CC)CCNc1ccc2nc(C)n3c4ccc(OC)cc4c(=O)c1c23` it was 610 s; in that of `Cc1ccc(CNC(=O)C2(C)CN(S(C)(=O)=O)CC(=O)N2c2cccc(Cl)c2C)cc1` (stereo not given), 893 s. With `COc1cc2c(cc1CNC(=O)Cn1cnc3cc4c(cc31)OCCO4)OCCCO2`, the RP-LC retention time turned out to be 629 s.

In turn, `CN1CCC(N(C)C(=O)CN2C(=O)C(Oc3ccc(F)cc3)C23CCCCC3)CC1` (stereo not given) gave an RP-LC retention time of 680 s. In the case of `O=C(CCCc1nnc2c(=O)n(-c3ccc(Cl)cc3)ccn12)NCCc1c[nH]c2ccccc12` it was 744 s. In the case of `Cc1cccc(NC(=O)N2CCC3(CC2)NC(=O)c2ccccc2O3)c1` it was 723 s. Take `O=C(c1ccsc1)N1CCC(OCc2nc(C3CC3)no2)CC1`: the RP-LC retention time turned out to be 762 s. As to `CCN1CCN(c2ncc(N3CCC(C(=O)NCc4cccs4)CC3)cn2)CC1`, the RP-LC retention time was 603 s. Compound `CCCC(NC(=O)c1ccc(C)cc1C)C(=O)Nc1nc2ccccc2[nH]1` (stereo not given) gave an RP-LC retention time of 735 s. As to `Clc1cccc(Cc2nc(-c3ccc4nncn4c3)no2)c1`, the RP-LC retention time came out at 827 s. Take `COC(=O)c1ccc(-c2nc3cnccn3c2Nc2cccc(C)c2C)cc1`: the RP-LC retention time is 980 s. Then `CCCNc1cc(N2CCC(CCC(=O)Nc3ccccc3)CC2)ncn1`, with 704 s; and `Cc1ccc(S(=O)(=O)c2cnc(N3CCC4(CC3)OCCO4)nc2N)cc1C`, with 900 s; and `COCCC(=O)N1CCCN(C2=NS(=O)(=O)C(c3ccc(F)cc3)=C2C)CC1`, with 697 s. Then `Cc1ccc(NC(=O)N2CC(n3cnnc3-c3ccccc3)C2)cc1C`, with 715 s; and `CN(C)S(=O)(=O)c1ccc2c(c1)N(CC(=O)NC1CCCCCCC1)C(=O)C1CCCCN21` (stereo not given), with 692 s; and `O=C(Nc1nccs1)C1CCN(C(=O)Cc2c(F)cccc2Cl)CC1`, with 717 s. Turning to `COC(=O)C(CCSC)NC(=O)c1cc2c(n(-c3ccc(Cl)cc3)c1=O)CC(C)(C)CC2=O` (stereo not given), the RP-LC retention time came to 1040 s.

Compound `Cc1ccc(CC(=O)NC2CCN(c3ccc(C)c(C)c3)C2=O)cc1` (stereo not given) had an RP-LC retention time of 904 s. Then `O=C(NCc1cc(F)cc(F)c1)c1ccnc(N2CCNC(c3ccccc3)C2)c1` (stereo not given), with 661 s; and `COc1cc(OC)c(NC(=O)CCSc2nc3c(=O)n(C)c(=O)n(C)c3n2C)cc1Cl`, with 735 s.

In turn, `CN1CCN(CCNC(=O)c2cc(-c3cccnc3)nc3ccc(Br)cc23)CC1` gave an RP-LC retention time of 585 s. Compound `O=C(CSc1cnc2ccccc2n1)N1CCN(c2ccc(F)cc2)CC1` had an RP-LC retention time of 851 s. In the case of `O=C(Cn1cnc2c(-c3ccc(Cl)cc3)csc2c1=O)NC1CCCC1` it was 933 s; in that of `COc1ccc(CNC(=O)C2(C)CCN(C(=O)Nc3cc(OC)c(OC)c(OC)c3)CC2)cc1`, 733 s. Then `CCOC(=O)C(=O)NCC1CCC(c2nc3ccccc3n2C)CC1` (stereo not given), with 552 s. `CCN1N=C(C(=O)N2CCC(C)CC2)S(=O)(=O)c2ccccc21` showed an RP-LC retention time of 844 s.

As to `CCOc1cccc(CNC(=O)C2CCCN(c3ncnc4c3oc3ccccc34)C2)c1` (stereo not given), the RP-LC retention time was determined as 782 s. Compound `COC(=O)C1=C(C)NC2=C(C(=O)c3ccccc32)C1c1ccc(OC)cc1OC` (stereo not given) registered an RP-LC retention time of 856 s. Compound `COCCCNC(=O)N1CCCCCC1c1cccc(C)c1` (stereo not given) registered an RP-LC retention time of 910 s. Then `CCOC(=O)c1ccc(NC(=O)C2CCCN(c3nnc(C)c4c(C)n(-c5ccccc5)nc34)C2)cc1` (stereo not given), with 797 s; and `CN1c2cc(F)ccc2C(=O)NC12CCN(C(=O)c1ccc(F)c(F)c1)CC2`, with 776 s; and `CN(C)C[C@@H]1CN(c2ncccn2)C[C@H]1NC(=O)c1ccc2ccccc2n1`, with 595 s. In the case of `CCOc1ccc(S(=O)(=O)N2CCCC(C(=O)NCCO)C2)cc1C` (stereo not given), the RP-LC retention time came out at 714 s. The compound `Cc1ccn(-c2ccc(C(=O)NC(C)C)cn2)n1` returned an RP-LC retention time of 715 s. In the case of `CCC(C)(C)NS(=O)(=O)c1cc(-c2nc(C)cs2)n(C)c1C` it was 1010 s; in that of `Cc1ccc(C(=O)N2CCCCCCN(C)C(=O)[C@@H]3CCC[C@@H]32)s1`, 912 s; in that of `O=C(Cc1nnc(-c2ccc3ncccc3c2)o1)NCCc1ccc(Cl)cc1`, 733 s. Compound `Cc1ccc(CNS(=O)(=O)c2cc(-c3nc(C(C)(C)C)cs3)cs2)o1` showed an RP-LC retention time of 1190 s. Then `Cc1ccc(S(=O)(=O)Nc2ccc(-c3cn4cccnc4n3)cc2)cc1[N+](=O)[O-]`, with 713 s; and `Cc1nnc(-c2cc(C)n(CC(=O)Nc3cccc(Cl)c3)c2C)o1`, with 805 s. `COc1ccc2cc(C(=O)Nc3ccc(F)cc3)[nH]c2c1` returned an RP-LC retention time of 910 s. On to `CC(C)CCNC(=O)CCCn1c2ccccc2c2cnn(C)c(=O)c21`, for which the RP-LC retention time is 865 s. Then `Cc1cccc(S(=O)(=O)N2CCC(n3cnnc3C(C)C)CC2)c1`, with 735 s; and `O=C(CCC1CCCC1)NCCC1CCN(C(=O)Nc2cc(F)ccc2F)CC1`, with 924 s. In the case of `COc1ccccc1-c1noc(-c2nnn(Cc3nc(-c4cccc(C)c4)oc3C)c2C)n1` it was 1160 s. Then `Cc1ccc(-n2c(=O)c3c(cc(C)n3C)n(CC(=O)Nc3cccc(Cl)c3)c2=O)cc1`, with 937 s; and `O=C(NCCN1CCOCC1)c1sc2cc(Cl)ccc2c1Cl`, with 590 s. With `CCn1c(CCNC(=O)c2ccc3ccccc3n2)nc2cccnc21`, the RP-LC retention time amounted to 685 s. In the case of `COCCNC(=O)C1CCN(C(=O)c2cccn2-c2cccnc2)CC1`, the RP-LC retention time amounted to 578 s. On to `Cc1nc(-n2cccc2)sc1C(=O)NCc1cc(-c2cccs2)on1`, for which the RP-LC retention time came to 894 s.

In turn, `CCOC(=O)C1=C(CN2CCC(Cc3ccccc3)CC2)NC(=O)NC1c1cccs1` (stereo not given) came in with an RP-LC retention time of 884 s. `CCN1CCC(N(Cc2ccc3c(c2)OCO3)C(=O)Nc2ccc(OC)cc2OC)CC1` registered an RP-LC retention time of 659 s. In turn, `N#Cc1ccc(C(=O)Nc2cnc(-c3cccc(Cl)c3)nc2)cc1` showed an RP-LC retention time of 1050 s. `CCn1cc(CCNC(=O)Nc2cc(F)c(F)c(F)c2)c2cccnc21` registered an RP-LC retention time of 820 s. In the case of `CC(C)C(=O)N1CCCc2ccc(NC(=O)c3ccc(F)c(F)c3)cc21` it was 871 s; in that of `Cc1noc(-c2ccc(SCC(=O)Nc3ccc(S(N)(=O)=O)cc3)nc2)n1`, 705 s. In the case of `CCN1C(=O)COc2ccc(-c3noc(-c4cccc(NC(C)=O)c4)n3)cc21` it was 848 s; in that of `CCc1nnc([C@@H]2CC(F)(F)CN2C(=O)Cn2nc(C)cc2C)o1`, 612 s.
